# Laboratory results: patent US11701372B2, “Inhalation formulations of 1'-cyano substituted carba-nucleoside analogs” (priority 2020, dated 2023)
# “And” between values parts separate entries of the source, which are not always exact repeats. Equal entries are not always repeated. Where two headings read alike, the source gives them in different places.
# What was measured:
# [1] = format: physicochemical
# Method: For each condition, samples were staged at ambient and refrigerated conditions. Samples were analyzed for % assay/degs, appearance, reconstitution time, pH, and compared to T=0. The structures of the key impurities/metabolites are shown below.
# [2] = In use testing of reconstituted solutions in IV bags and IV tubings; format: physicochemical
# Source text: The IV bags and IV tubings were sampled over time and tested for % assay/degradation.
smiles,measurement,setting,value
CCC(CC)COC(=O)[C@H](C)N[P@](=O)(OC[C@H]1O[C@@](C(N)=O)(c2ccc3c(N)ncnn23)[C@H](O)[C@@H]1O)Oc1ccccc1 [Compound G],"% assay/degs, difference from T = 0","[1]; pH 1.8, 2-8° C., 2 h",0.00%
same,"% assay/degs, difference from T = 0","[1]; pH 1.8, 2-8° C., 3 h",0.00%
same,"% assay/degs, difference from T = 0","[1]; pH 1.8, 2-8° C., 8 h",0.00%
same,"% assay/degs, difference from T = 0","[1]; pH 1.8, 2-8° C., 24 h",0.00%
same,"% assay/degs, difference from T = 0","[1]; pH 1.8, 2-8° C., 48 h",0.00%
same,"% assay/degs, difference from T = 0","[1]; pH 1.8, Ambient, 1 h",0.00%
same,"% assay/degs, difference from T = 0","[1]; pH 1.8, Ambient, 2 h",0.00%
same,"% assay/degs, difference from T = 0","[1]; pH 1.8, Ambient, 3 h",0.00%
same,"% assay/degs, difference from T = 0","[1]; pH 1.8, Ambient, 8 h",0.00%
same,"% assay/degs, difference from T = 0","[1]; pH 1.8, Ambient, 24 h",0.00%
same,"% assay/degs, difference from T = 0","[1]; pH 1.8, Ambient, 48 h",0.00%
same,% assay/degs,"[1]; pH 1.8, T = 0",0.05%
same,"% assay/degs, difference from T = 0","[1]; pH 2.0, 2-8° C., 2 h",0.00%
same,"% assay/degs, difference from T = 0","[1]; pH 2.0, 2-8° C., 3 h",0.00%
same,"% assay/degs, difference from T = 0","[1]; pH 2.0, 2-8° C., 8 h",0.00%
same,"% assay/degs, difference from T = 0","[1]; pH 2.0, 2-8° C., 24 h",0.00%
same,"% assay/degs, difference from T = 0","[1]; pH 2.0, 2-8° C., 48 h",0.00%
same,"% assay/degs, difference from T = 0","[1]; pH 2.0, Ambient, 1 h",0.00%
same,"% assay/degs, difference from T = 0","[1]; pH 2.0, Ambient, 2 h",0.00%
same,"% assay/degs, difference from T = 0","[1]; pH 2.0, Ambient, 3 h",0.00%
same,"% assay/degs, difference from T = 0","[1]; pH 2.0, Ambient, 8 h",0.00%
same,"% assay/degs, difference from T = 0","[1]; pH 2.0, Ambient, 24 h",0.00%
same,"% assay/degs, difference from T = 0","[1]; pH 2.0, Ambient, 48 h",0.00%
same,% assay/degs,"[1]; pH 2.0, T = 0",0.05%
same,"% assay/degs, difference from T = 0","[1]; pH 3.5, 2-8° C., 2 h",0.00%
same,"% assay/degs, difference from T = 0","[1]; pH 3.5, 2-8° C., 8 h",0.00%
same,"% assay/degs, difference from T = 0","[1]; pH 3.5, 2-8° C., 24 h",0.00%
same,"% assay/degs, difference from T = 0","[1]; pH 3.5, 2-8° C., 48 h",0.00%
same,"% assay/degs, difference from T = 0","[1]; pH 3.5, 2-8° C., 72 h",0.00%
same,"% assay/degs, difference from T = 0","[1]; pH 3.5, 2-8° C., 96 h",0.00%
same,"% assay/degs, difference from T = 0","[1]; pH 3.5, 2-8° C., 168 h",0.00%
same,"% assay/degs, difference from T = 0","[1]; pH 3.5, Ambient, 2 h",0.00%
same,"% assay/degs, difference from T = 0","[1]; pH 3.5, Ambient, 8 h",0.00%
same,"% assay/degs, difference from T = 0","[1]; pH 3.5, Ambient, 24 h",0.00%
same,"% assay/degs, difference from T = 0","[1]; pH 3.5, Ambient, 48 h",0.00%
same,"% assay/degs, difference from T = 0","[1]; pH 3.5, Ambient, 72 h",0.00%
same,"% assay/degs, difference from T = 0","[1]; pH 3.5, Ambient, 96 h",0.00%
same,"% assay/degs, difference from T = 0","[1]; pH 3.5, Ambient, 168 h",0.00%
same,% assay/degs,"[1]; pH 3.5, T = 0",0.05%
same,"% assay/degs, difference from T = 0","[1]; pH 3.8, 2-8° C., 7.2 h",0.00%
same,"% assay/degs, difference from T = 0","[1]; pH 3.8, 2-8° C., 24 h",0.00%
same,"% assay/degs, difference from T = 0","[1]; pH 3.8, 2-8° C., 96 h",0.00%
same,"% assay/degs, difference from T = 0","[1]; pH 3.8, 2-8° C., 168 h",0.00%
same,"% assay/degs, difference from T = 0","[1]; pH 3.8, Ambient, 7.2 h",0.00%
same,"% assay/degs, difference from T = 0","[1]; pH 3.8, Ambient, 24 h",0.00%
same,"% assay/degs, difference from T = 0","[1]; pH 3.8, Ambient, 96 h",0.00%
same,"% assay/degs, difference from T = 0","[1]; pH 3.8, Ambient, 168 h",0.00%
same,% assay/degs,"[1]; pH 3.8, T = 0",0.05%
same,"% assay/degs, difference from T = 0","[1]; pH 4.0, 2-8° C., 7.2 h",0.00%
same,"% assay/degs, difference from T = 0","[1]; pH 4.0, 2-8° C., 24 h",0.00%
same,"% assay/degs, difference from T = 0","[1]; pH 4.0, 2-8° C., 96 h",0.00%
same,"% assay/degs, difference from T = 0","[1]; pH 4.0, 2-8° C., 168 h",0.00%
same,"% assay/degs, difference from T = 0","[1]; pH 4.0, Ambient, 7.2 h",0.00%
same,"% assay/degs, difference from T = 0","[1]; pH 4.0, Ambient, 24 h",0.00%
same,"% assay/degs, difference from T = 0","[1]; pH 4.0, Ambient, 96 h",0.00%
same,"% assay/degs, difference from T = 0","[1]; pH 4.0, Ambient, 168 h",0.00%
same,% assay/degs,"[1]; pH 4.0, T = 0",0.06%
same,% assay/degradation,"[2]; 30 mg (IV Bag), 2-8° C. 24 h",0.05 % w/w
same,% assay/degradation,"[2]; 30 mg (IV Bag), 2-8° C. 48 h",0.06 % w/w
same,% assay/degradation,"[2]; 30 mg (IV Bag), Ambient 4 h",0.06 % w/w
same,% assay/degradation,"[2]; 30 mg (IV Bag), Ambient 8 h",0.06 % w/w
same,% assay/degradation,"[2]; 30 mg (IV Bag), Ambient 24 h",0.06 % w/w
same,% assay/degradation,"[2]; 30 mg (IV Bag), T = 0 (2-8° C. series)",0.05 % w/w
same,% assay/degradation,"[2]; 30 mg (IV Tube), Ambient 6 Hours",0.06 % w/w
same,% assay/degradation,"[2]; 30 mg in 100 mL 0.9% Saline (IV Bag), T = 0 (Ambient series)",0.05 % w/w
same,% assay/degradation,"[2]; 200 mg (IV Bag), 2-8° C. 24 h",0.05 % w/w
same,% assay/degradation,"[2]; 200 mg (IV Bag), 2-8° C. 48 h",0.06 % w/w
same,% assay/degradation,"[2]; 200 mg (IV Bag), Ambient 4 h",0.06 % w/w
same,% assay/degradation,"[2]; 200 mg (IV Bag), Ambient 8 h",0.06 % w/w
same,% assay/degradation,"[2]; 200 mg (IV Bag), Ambient 24 h",0.06 % w/w
same,% assay/degradation,"[2]; 200 mg (IV Bag), T = 0 (2-8° C. series)",0.05 % w/w
same,% assay/degradation,"[2]; 200 mg (IV Tube), Ambient 6 h",0.05 % w/w
same,% assay/degradation,"[2]; 200 mg in 100 mL 0.9% Saline (IV Bag), T = 0 (Ambient series)",0.05 % w/w
Oc1ccccc1 [Phenol],% assay/degs,[1]; pH 1.8,0.00%
same,"% assay/degs, difference from T = 0",[1]; pH 1.8,0.00% and 0.04% and 0.08%
same,% assay/degs,[1]; pH 2,0.00%
same,"% assay/degs, difference from T = 0",[1]; pH 2,0.00% and 0.04% and 0.05%
same,% assay/degs,[1]; pH 3.5,0.00%
same,"% assay/degs, difference from T = 0",[1]; pH 3.5,0.00%
same,% assay/degradation,[2],0.00 % w/w
